Laboratory results: US10597390B2, “Indoles for use in influenza virus infection” (Janssen Sciences Ireland UC, priority 2014, dated 2020)

How the values were obtained:
[1] = system: influenza virus A/Taiwan/1/86 (H1N1); experiment: organism not typed; format: cell-based; conditions: MDCK, 72 h, CPE in MDCK cells, three days post-virus exposure, ATPlite
in vitro = conditions: dog, TOX MDCK CC50

Row | SMILES | IC50 [1] [µM] | melting point [°C] | CC50 at 3 days (in vitro) [µM]
1 | Cc1cc(F)c2[nH]cc(-c3nc(N[C@@H]4CCC[C@@H](NC(=O)c5ccccn5)C4)c(F)cc3C#N)c2c1 (racemic) [Compound 22, N-((cis)-3-((5-cyano-3-fluoro-6-(7-fluoro-5-methyl-1H-indol-3-yl)-pyridin-2-yl)amino)cyclohexyl)picolinamide] | 0.012 | 98 | > 25
2 | NC(=O)c1cc(F)c(N[C@@H]2CCC[C@H](NC(=O)N3CCCC3)C2)nc1-c1c[nH]c2c(F)cc(F)cc12 (racemic) [Compound 23] | 0.14 | 249.2 | > 25
3 | Cc1cc(C(=O)N[C@@H]2CCC[C@H](Nc3nc(-c4c[nH]c5c(F)cc(Cl)cc45)ncc3F)C2)on1 (racemic) [Compound 29] | 0.017 | 246.7 | 3.4
4 | Cc1cc(F)c2[nH]cc(-c3ncc(F)c(NC(CC(=O)O)C(C)(C)C)n3)c2c1 (racemic) [Compound 167] | 0.03 | 182 | 3.5
5 | Cc1cc(F)c2[nH]cc(-c3nc(N[C@@H]4CCC[C@@H](NC(=O)c5ncoc5C)C4)c(F)cc3C#N)c2c1 (racemic) [Compound 192] | 0.011 | > 250 | > 25
6 | Cc1cc(F)c2[nH]cc(-c3ncc(F)c(N[C@H]4CCC[C@@H](NC(=O)c5ncsc5C)C4)n3)c2c1 (racemic) [Compound 193] | 0.005 | 234 | 3.6
7 | Cc1cc(F)c2[nH]cc(-c3ncc(F)c(N[C@@H]4CCC[C@@H](NC(=O)c5ncoc5C)C4)n3)c2c1 (racemic) [Compound 194] | 0.017 | 140 | 11.2
8 | Cc1cc(F)c2[nH]cc(-c3nc(N[C@H]4CCC[C@@H](NC(=O)c5cn(C)cn5)C4)c(F)cc3C#N)c2c1 (racemic) [Compound 195] | 0.02 | > 250 | 6.6
9 | Cc1cc(F)c2[nH]cc(-c3ncc(F)c(N[C@@H]4CCC[C@@H](NC(=O)c5cn(C)cn5)C4)n3)c2c1 (racemic) [Compound 196] | 0.021 | > 250 | 10.3
10 | Cc1cc(F)c2[nH]cc(-c3ncc(F)c(N[C@@H]4CCC[C@@H](NC(=O)c5cncn5C)C4)n3)c2c1 (racemic) [Compound 198] | 0.04 | 98 | 9.7
11 | Cc1cc(F)c2[nH]cc(-c3ncc(F)c(N[C@@H]4CCC[C@@H](NC(=O)c5nc(C)oc5C)C4)n3)c2c1 (racemic) [Compound 199] | 0.046 | 170 | 13
12 | Cc1cc(F)c2[nH]cc(-c3nc(N[C@@H]4CCC[C@@H](NC(=O)c5nc(C)oc5C)C4)c(F)cc3C#N)c2c1 (racemic) [Compound 200] | 0.16 | > 250 | > 25
13 | Cc1cc(F)c2[nH]cc(-c3nc(N[C@@H]4CCC[C@@H](NC(=O)c5cncs5)C4)c(F)cc3C#N)c2c1 (racemic) [Compound 201] | 0.01 | > 250 | > 21.8
14 | Cn1ccc(C(=O)N[C@@H]2CCC[C@@H](Nc3nc(-c4c[nH]c5c(F)cc(F)cc45)c(C#N)cc3F)C2)n1 (racemic) [Compound 205] | 0.004 | 103 | > 25
15 | N#Cc1cc(F)c(N[C@H]2CCC[C@@H](NC(=O)c3ncccc3F)C2)nc1-c1c[nH]c2c(F)cc(F)cc12 (racemic) [Compound 212] | 0.01 | 289 | > 25
16 | CS(=O)(=O)NCc1cc(F)c(N[C@@H]2CCC[C@H](NC(=O)N3CCCC3)C2)nc1-c1c[nH]c2c(F)cc(F)cc12 (racemic) [Compound 250, N-((cis)-3-((6-(5,7-difluoro-1H-indol-3-yl)-3-fluoro-5-(methylsulfonamidomethyl)pyridin-2-yl)amino)cyclohexyl)pyrrolidine-1-carboxamide] | 0.78 | 252.1 | > 25
17 | CC(=O)NCc1ccc(N[C@H]2CCC[C@@H](NC(=O)N3CCCC3)C2)nc1-c1c[nH]c2c(F)cc(F)cc12 (racemic) [Compound 260, N-((cis)-3-((5-(acetamidomethyl)-6-(5,7-difluoro-1H-indol-3-yl)pyridin-2-yl)amino)-cyclohexyl)pyrrolidine-1-carboxamide] | 0.61 | 235.8 | > 25
18 | Cn1cnc(C(=O)N[C@@H]2CCC[C@H](Nc3nc(-c4c[nH]c5c(F)cc(C(F)(F)F)cc45)ncc3F)C2)c1 (racemic) [Compound 264] | 0.019 | 266.5 | 3.8
19 | Cc1cnc(C(=O)N[C@@H]2CCC[C@H](Nc3nc(-c4c[nH]c5c(F)cc(Cl)cc45)ncc3F)C2)cn1 (relative stereo) [Compound 11, N-((1R*,3S*)-3-((2-(5-chloro-7-fluoro-1H-indol-3-yl)-5-fluoropyrimidin-4-yl)amino)cyclohexyl)-5-methylpyrazine-2-carboxamide] | 0.04 | 251.5 | 9
20 | O=C(O)c1ccccc1C(=O)N[C@@H]1CCC[C@H](Nc2nc(-c3c[nH]c4c(F)cc(F)cc34)ncc2F)C1 (relative stereo) [Compound 224, 2-(((1R*,3S*)-3-((2-(5,7-difluoro-1H-indol-3-yl)-5-fluoropyrimidin-4-yl)amino)cyclohexyl)carbamoyl)benzoic Acid] | 0.16 | 201.5 | > 5
21 | CC[C@@]1(C(=O)O)CCCC[C@H]1Nc1nc(-c2c[nH]c3c(F)cc(F)cc23)c(C#N)cc1F (relative stereo) [Compound 247, (trans)-2-((5-cyano-6-(5,7-difluoro-1H-indol-3-yl)-3-fluoropyridin-2-yl)-amino)-1-ethylcyclohexanecarboxylic Acid] | 0.05 | 254.9 | 0.4
22 | COc1cccc(C(=O)N[C@@H]2CCC[C@H](Nc3nc(-c4c[nH]c5c(F)cc(Cl)cc45)ncc3F)C2)n1 [Compound 31] | 0.047 | 256.7 | 19.9
23 | Cc1cccnc1C(=O)N[C@@H]1CCC[C@H](Nc2nc(-c3c[nH]c4c(F)cc(Cl)cc34)ncc2F)C1 [Compound 32] | 0.009 | 226.5 | > 22
24 | O=C(N[C@@H]1CCC[C@H](Nc2nc(-c3c[nH]c4c(F)cc(Cl)cc34)ncc2F)C1)c1cnccn1 [Compound 33] | 0.007 | 249.9 | 13.8
25 | O=C(N[C@@H]1CCC[C@H](Nc2nc(-c3c[nH]c4c(F)cc(Cl)cc34)ncc2F)C1)c1ncccc1O [Compound 34] | 0.008 | 242.2 | 8.7
26 | O=C(N[C@@H]1CCC[C@H](Nc2nc(-c3c[nH]c4c(F)cc(Cl)cc34)ncc2F)C1)c1cccc(O)n1 [Compound 35] | 0.003 | 253.4 | > 19.4
27 | Cc1cc(C(=O)N[C@@H]2CCC[C@H](Nc3nc(-c4c[nH]c5c(F)cc(Cl)cc45)ncc3F)C2)nn1C [Compound 36] | 0.01 | 178.2 | 5.5
